# Measured values: US20230133087A1, “ACTIVE COMPOUND COMBINATIONS AND FUNGICIDE COMPOSITIONS COMPRISING THOSE” (priority 2020, published 2023)
# Values joined by “and” are separate entries in the source; they are usually repeats but may differ in a detail not shown here. Identical values can stand only once.
# Experiments:
# Type in all cases: cell-based
# Colletotrichum coccodes = test: In vitro-test with fungal microorganisms: Colletotrichum coccodes
# Procedure: (§1) The degree of efficacy, expressed in % is denoted. 0% means an efficacy which corresponds to that of the control while an efficacy of 100% means that no disease is observed.
# (§2) Wells of 96-well microtiter plates are filled with 30 μl of a preparation of test compound or compound combination in methanol+emulsifier alkylaryl-polyglycol-ether. Thereafter, the solvent is evaporated in a hood. At the next step, into each well 200 μl of liquid growth medium is given, that has been amended with an appropriate concentration of spores or mycelium suspension of the test fungus.
# (§3) With the aid of a photometer the extinction in all wells is measured at the wavelength of 600 nm.
# (§4) The microtiter plates are incubated for 3 to 7 days at 20° C. and 85% relative humidity. After the incubation inhibition of growth is determined photometrically. Efficacy is calculated in relation to the untreated control, 0% efficacy means fungal growth as high as in untreated control while 100% efficacy means no fungal growth is measured.
# Cordana musae = test: In vitro-test with fungal microorganisms: Cordana musae
# Procedure: as §1, §2, §3, §4
# Parastasonospora nodorum = test: In vitro-test with fungal microorganisms: Parastasonospora nodorum
# Procedure: as §1, §2, §3, §4
# Diaporthe citri = test: In vitro-test with fungal microorganisms: Diaporthe citri
# Procedure: as §1, §2, §3, §4
# Botrytis cinerea = test: In vitro-test with fungal microorganisms: Botrytis cinerea
# Procedure: as §1, §2, §3, §4
# Alternaria alternata = test: In vitro-test with fungal microorganisms (microtiter plate, photometric growth inhibition): Alternaria alternata
# Procedure: as §1, §2, §3, §4
# Cercospora beticola = test: In vitro-test with fungal microorganisms: Cercospora beticola
# Procedure: as §1, §2, §3, §4
# Fusarium culmorum = test: In vitro-test with fungal microorganisms: Fusarium culmorum
# Procedure: as §1, §2, §3, §4
compound,measurement,setting,value
"O=C(NC1CCC1c1ccc(Cl)cc1Cl)c1cccnc1C(F)(F)F (stereo in doubt) [(2.060) cyclobutrifluram, cyclobutrifluram]",efficacy,Colletotrichum coccodes; 0.04 ppm,5%
same,efficacy,Colletotrichum coccodes; 0.2 ppm,8%
same,efficacy,Cordana musae; 0.04 ppm,3%
same,efficacy,Cordana musae; 0.2 ppm,4%
same,efficacy,Cordana musae; 1 ppm,6%
O=C(NC1CCC1c1ccc(Cl)cc1Cl)c1cccnc1C(F)(F)F (stereo in doubt) [cyclobutrifluram],efficacy,"Parastasonospora nodorum; Table H2, 0.04 ppm",27%
same,efficacy,"Diaporthe citri; Table F1, 0.04 ppm",0%
"O=C(NCCc1ncc(C(F)(F)F)cc1Cl)c1ccccc1C(F)(F)F [(2.005) fluopyram, fluopyram]",efficacy,Colletotrichum coccodes; 0.16 ppm,10% and 0%
same,efficacy,Colletotrichum coccodes; 0.8 ppm,0%
same,efficacy,Botrytis cinerea; 0.8 ppm,0%
same,efficacy,Cordana musae; 0.16 ppm,0%
same,efficacy,Cordana musae; 0.8 ppm,6% and 0%
same,efficacy,Alternaria alternata; 0.16 ppm,72%
same,efficacy,Alternaria alternata; 0.8 ppm,73%
same,efficacy,Alternaria alternata; 4 ppm,95%
"Cc1nn(C)c(F)c1C(=O)Nc1ccccc1C(C)CC(C)C (stereo not shown) [(2.017) penflufen, penflufen]",efficacy,Colletotrichum coccodes; 0.04 ppm,5%
same,efficacy,Colletotrichum coccodes; 0.2 ppm,0%
same,efficacy,Botrytis cinerea; 1 ppm,35%
same,efficacy,Botrytis cinerea; 5 ppm,7%
same,efficacy,Alternaria alternata; 0.2 ppm,14%
"CON(C(=O)c1cn(C)nc1C(F)F)C(C)Cc1c(Cl)cc(Cl)cc1Cl (stereo not shown) [(2.019) pydiflumetofen, pydiflumetofen]",efficacy,Colletotrichum coccodes; 0.008 ppm,8% and 9%
same,efficacy,Colletotrichum coccodes; 0.2 ppm,19%
same,efficacy,Botrytis cinerea; 0.04 ppm,71%
same,efficacy,Botrytis cinerea; 0.2 ppm,82%
same,efficacy,Botrytis cinerea; 1 ppm,92%
"CC(C)c1ccc(Cl)cc1CN(C(=O)c1c(C(F)F)nn(C)c1F)C1CC1 [(2.038) isoflucypram, isoflucypram]",efficacy,Cercospora beticola; 0.008 ppm,20%
same,efficacy,Cercospora beticola; 0.04 ppm,30%
same,efficacy,Cercospora beticola; 0.2 ppm,0%
same,efficacy,Cercospora beticola; 1 ppm,88%
same,efficacy,Colletotrichum coccodes; 0.008 ppm,23%
same,efficacy,Colletotrichum coccodes; 0.04 ppm,9% and 5%
same,efficacy,Colletotrichum coccodes; 0.2 ppm,14%
same,efficacy,Cordana musae; 0.008 ppm,8% and 2%
same,efficacy,Cordana musae; 0.04 ppm,0%
same,efficacy,Alternaria alternata; 0.008 ppm,51%
same,efficacy,Alternaria alternata; 0.2 ppm,69%
"CO/N=C(/C1=NOCCO1)c1ccccc1Oc1ncnc(Oc2ccccc2Cl)c1F [(3.012) fluoxastrobin, fluoxastrobin]",efficacy,Cercospora beticola; 2 ppm,94%
same,efficacy,Colletotrichum coccodes; 0.008 ppm,0%
same,efficacy,Colletotrichum coccodes; 0.08 ppm,30% and 15%
same,efficacy,Colletotrichum coccodes; 0.4 ppm,49% and 50% and 51%
same,efficacy,Colletotrichum coccodes; 2 ppm,88% and 87% and 82% and 83%
same,efficacy,Colletotrichum coccodes; 10 ppm,94% and 95% and 96%
same,efficacy,Botrytis cinerea; 0.08 ppm,15% and 12%
same,efficacy,Botrytis cinerea; 2 ppm,59% and 52%
same,efficacy,Botrytis cinerea; 10 ppm,86% and 83%
same,efficacy,Cordana musae; 2 ppm,77%
same,efficacy,Cordana musae; 10 ppm,87%
same,efficacy,Alternaria alternata; 2 ppm,100%
"CON=C(C(=O)OC)c1ccccc1CON=C(C)c1cccc(C(F)(F)F)c1 [(3.020) trifloxystrobin, trifloxystrobin]",efficacy,Colletotrichum coccodes; 0.04 ppm,58% and 62% and 61%
same,efficacy,Colletotrichum coccodes; 0.2 ppm,84% and 88% and 82%
same,efficacy,Colletotrichum coccodes; 1 ppm,96% and 97% and 92%
same,efficacy,Botrytis cinerea; 0.008 ppm,0%
same,efficacy,Botrytis cinerea; 0.04 ppm,9%
same,efficacy,Botrytis cinerea; 0.2 ppm,25%
same,efficacy,Botrytis cinerea; 1 ppm,81%
same,efficacy,Cordana musae; 0.008 ppm,29%
same,efficacy,Cordana musae; 0.04 ppm,82%
same,efficacy,Cordana musae; 0.2 ppm,83% and 82%
same,efficacy,Cordana musae; 1 ppm,89% and 88% and 86% and 85%
same,efficacy,Alternaria alternata; 0.008 ppm,39%
same,efficacy,Alternaria alternata; 1 ppm,100%
"Cc1cccc(-n2nnn(C)c2=O)c1COc1ccn(-c2ccc(Cl)cc2)n1 [(3.030) metyltetraprole, metyltetraprole]",efficacy,Colletotrichum coccodes; 0.008 ppm,36%
same,efficacy,Colletotrichum coccodes; 0.4 ppm,75% and 73% and 72%
same,efficacy,Colletotrichum coccodes; 2 ppm,92% and 94% and 82%
same,efficacy,Colletotrichum coccodes; 10 ppm,100%
same,efficacy,Botrytis cinerea; 0.08 ppm,18%
same,efficacy,Botrytis cinerea; 0.4 ppm,30% and 25%
same,efficacy,Botrytis cinerea; 10 ppm,84%
same,efficacy,Cordana musae; 0.08 ppm,65%
same,efficacy,Cordana musae; 0.4 ppm,77%
same,efficacy,Cordana musae; 10 ppm,96%
same,efficacy,Alternaria alternata; 2 ppm,92% and 99%
same,efficacy,Alternaria alternata; 10 ppm,99%
"COC(=O)C(O)(Cn1cncn1)c1ccc(Oc2ccc(Cl)cc2)cc1Cl (stereo not shown) [(I-1), Methyl 2-[2-chloro-4-(4-chlorophenoxy)phenyl]-2-hydroxy-3-(1,2,4-triazol-1-yl)propanoate]",efficacy,Cercospora beticola; 0.02 ppm,50%
same,efficacy,Cercospora beticola; 0.1 ppm,36%
same,efficacy,Cercospora beticola; 0.5 ppm,74%
same,efficacy,Cercospora beticola; 2.5 ppm,99%
same,efficacy,"Parastasonospora nodorum; Table H1, 0.02 ppm",0%
same,efficacy,"Parastasonospora nodorum; Table H1, 2.5 ppm",99%
same,efficacy,"Parastasonospora nodorum; Table H2, 0.02 ppm",2% and 0% and 3%
same,efficacy,"Parastasonospora nodorum; Table H2, 2.5 ppm",96%
same,efficacy,"Parastasonospora nodorum; Table H3, 0.02 ppm",9%
same,efficacy,Fusarium culmorum; 0.02 ppm,9%
same,efficacy,Fusarium culmorum; 0.1 ppm,6% and 0%
same,efficacy,Fusarium culmorum; 0.5 ppm,0%
same,efficacy,"Diaporthe citri; Table F1, 2.5 ppm",99%
same,efficacy,"Diaporthe citri; Table F2, 0.02 ppm",2%
same,efficacy,"Diaporthe citri; Table F2, 0.5 ppm",92%
same,efficacy,"Diaporthe citri; Table F2, 2.5 ppm",98%
same,efficacy,Colletotrichum coccodes; 0.02 ppm,0% and 4%
same,efficacy,Botrytis cinerea; 2.5 ppm,62%
same,efficacy,"Botrytis cinerea; 2.5 ppm, with penflufen 1 ppm, metyltetraprole 0.08 ppm",63%
same,efficacy,Alternaria alternata; 2.5 ppm,92%
O=C(NCCc1ncc(C(F)(F)F)cc1Cl)c1ccccc1C(F)(F)F [fluopyram],efficacy,"Parastasonospora nodorum; Table H1, 0.16 ppm",14%
same,efficacy,"Parastasonospora nodorum; Table H1, 20 ppm",100%
same,efficacy,Fusarium culmorum; 0.16 ppm,9%
same,efficacy,Fusarium culmorum; 0.8 ppm,18%
same,efficacy,"Diaporthe citri; Table F1, 0.16 ppm",0%
CO/N=C(/C1=NOCCO1)c1ccccc1Oc1ncnc(Oc2ccccc2Cl)c1F [fluoxastrobin],efficacy,"Parastasonospora nodorum; Table H1, 0.4 ppm",77%
same,efficacy,"Parastasonospora nodorum; Table H1, 2 ppm",87%
same,efficacy,"Parastasonospora nodorum; Table H2, 0.08 ppm",60%
same,efficacy,"Parastasonospora nodorum; Table H2, 0.4 ppm",65%
same,efficacy,"Parastasonospora nodorum; Table H2, 2 ppm",85%
same,efficacy,"Parastasonospora nodorum; Table H3, 0.08 ppm",57%
same,efficacy,"Parastasonospora nodorum; Table H3, 2 ppm",85%
same,efficacy,"Parastasonospora nodorum; Table H3, 10 ppm",82%
same,efficacy,Fusarium culmorum; 0.08 ppm,7% and 0%
same,efficacy,Fusarium culmorum; 0.4 ppm,17%
same,efficacy,Fusarium culmorum; 10 ppm,56%
same,efficacy,"Diaporthe citri; Table F1, 0.4 ppm",89%
same,efficacy,"Diaporthe citri; Table F1, 2 ppm",98%
same,efficacy,"Diaporthe citri; Table F2, 2 ppm",66%
same,efficacy,Cordana musae; 0.4 ppm,64%
same,efficacy,Cordana musae; 2 ppm,78%
same,efficacy,Cordana musae; 10 ppm,78%
C[C@@H]1CC(C)(C)c2cccc(NC(=O)c3cn(C)nc3C(F)F)c21 [inpyrfluxam],efficacy,"Parastasonospora nodorum; Table H3, 0.008 ppm",20%
same,efficacy,Cordana musae; 0.008 ppm,16%
same,efficacy,Cordana musae; 0.04 ppm,0%
same,efficacy,Cordana musae; 0.2 ppm,6%
CC(C)c1ccc(Cl)cc1CN(C(=O)c1c(C(F)F)nn(C)c1F)C1CC1 [isoflucypram],efficacy,Fusarium culmorum; 0.04 ppm,0%
same,efficacy,Fusarium culmorum; 0.2 ppm,11%
Cc1cccc(-n2nnn(C)c2=O)c1COc1ccn(-c2ccc(Cl)cc2)n1 [metyltetraprole],efficacy,"Parastasonospora nodorum; Table H2, 0.08 ppm",80% and 76%
same,efficacy,"Parastasonospora nodorum; Table H2, 0.4 ppm",92%
same,efficacy,"Parastasonospora nodorum; Table H2, 2 ppm",100%
same,efficacy,"Parastasonospora nodorum; Table H2, 10 ppm",100%
same,efficacy,"Diaporthe citri; Table F1, 0.4 ppm",91%
same,efficacy,"Diaporthe citri; Table F1, 2 ppm",99%
same,efficacy,"Diaporthe citri; Table F1, 10 ppm",99%
same,efficacy,"Diaporthe citri; Table F2, 0.4 ppm",89%
same,efficacy,"Diaporthe citri; Table F2, 2 ppm",99%
same,efficacy,Cordana musae; 0.08 ppm,58%
same,efficacy,Cordana musae; 0.4 ppm,73%
same,efficacy,Cordana musae; 2 ppm,82%
Cc1nn(C)c(F)c1C(=O)Nc1ccccc1C(C)CC(C)C (stereo not shown) [penflufen],efficacy,"Parastasonospora nodorum; Table H2, 5 ppm",22%
same,efficacy,"Diaporthe citri; Table F2, 0.04 ppm",0%
same,efficacy,"Diaporthe citri; Table F2, 0.2 ppm",0%
same,efficacy,Cordana musae; 0.2 ppm,0%
same,efficacy,Cordana musae; 1 ppm,0%
CON(C(=O)c1cn(C)nc1C(F)F)C(C)Cc1c(Cl)cc(Cl)cc1Cl (stereo not shown) [pydiflumetofen],efficacy,"Diaporthe citri; Table F2, 0.04 ppm",0%
same,efficacy,"Diaporthe citri; Table F2, 0.2 ppm",22%
same,efficacy,"Diaporthe citri; Table F2, 1 ppm",33%
same,efficacy,Cordana musae; 0.008 ppm,0%
same,efficacy,Cordana musae; 0.04 ppm,9%
CON=C(C(=O)OC)c1ccccc1CON=C(C)c1cccc(C(F)(F)F)c1 [trifloxystrobin],efficacy,"Parastasonospora nodorum; Table H1, 0.04 ppm",65%
same,efficacy,"Parastasonospora nodorum; Table H1, 0.2 ppm",85%
same,efficacy,"Parastasonospora nodorum; Table H2, 0.008 ppm",44%
same,efficacy,"Parastasonospora nodorum; Table H2, 0.04 ppm",79%
same,efficacy,Fusarium culmorum; 0.008 ppm,14%
same,efficacy,Fusarium culmorum; 0.04 ppm,18%
same,efficacy,Fusarium culmorum; 0.2 ppm,41%
same,efficacy,Fusarium culmorum; 1 ppm,68%
same,efficacy,Cordana musae; 0.2 ppm,73%
same,efficacy,Cordana musae; 1 ppm,84%
inpyrfluxam [(2.027) inpyrfluxam],efficacy,Colletotrichum coccodes; 0.008 ppm,0%
same,efficacy,Colletotrichum coccodes; 0.08 ppm,24%
same,efficacy,Colletotrichum coccodes; 0.2 ppm,0%
same,efficacy,Colletotrichum coccodes; 0.4 ppm,23%
same,efficacy,Botrytis cinerea; 0.008 ppm,0%
same,efficacy,Botrytis cinerea; 0.04 ppm,37%
same,efficacy,Botrytis cinerea; 0.08 ppm,0%
same,efficacy,Cordana musae; 0.008 ppm,16%
same,efficacy,Cordana musae; 0.04 ppm,0%
same,efficacy,Cordana musae; 0.2 ppm,6%
same,efficacy,Alternaria alternata; 0.008 ppm,0%
same,efficacy,Alternaria alternata; 0.04 ppm,41% and 27%
same,efficacy,Alternaria alternata; 1 ppm,86%
